{"source": "patent US20050186168A1", "about": "“Skin remodeling and regenerative compositions containing elastin peptide ligands having the amino acid sequence (XGXXPG)n” (priority 2004, published 2005)", "origin": "cited, not measured here", "molecules": {"B1": {"name": "Elastin: extracellular matrix protein elastin (protein, UniProt P15502 27-786, looked up)", "Elastin": "GGVPGAIPGGVPGGVFYPGAGLGALGGGALGPGGKPLKPVPGGLAGAGLGAGLGAFPAVTFPGALVPGGVADAAAAYKAAKAGAGLGGVPGVGGLGVSAGAVVPQPGAGVKPGKVPGVGLPGVYPGGVLPGARFPGVGVLPGVPTGAGVKPKAPGVGGAFAGIPGVGPFGGPQPGVPLGYPIKAPKLPGGYGLPYTTGKLPYGYGPGGVAGAAGKAGYPTGTGVGPQAAAAAAAKAAAKFGAGAAGVLPGVGGAGVPGVPGAIPGIGGIAGVGTPAAAAAAAAAAKAAKYGAAAGLVPGGPGFGPGVVGVPGAGVPGVGVPGAGIPVVPGAGIPGAAVPGVVSPEAAAKAAAKAAKYGARPGVGVGGIPTYGVGAGGFPGFGVGVGGIPGVAGVPGVGGVPGVGGVPGVGISPEAQAAAAAKAAKYGAAGAGVLGGLVPGAPGAVPGVPGTGGVPGVGTPAAAAAKAAAKAAQFGLVPGVGVAPGVGVAPGVGVAPGVGLAPGVGVAPGVGVAPGVGVAPGIGPGGVAAAAKSAAKVAAKAQLRAAAGLGAGIPGLGVGVGVPGLGVGAGVPGLGVGAGVPGFGAGADEGVRRSLSPELREGDPSSSQHLPSTPSSPRVPGALAAAKAAKYGAAVPGVLGGLGALGGVGIPGGVVGAGPAAAAAAAKAAAKAAQFGLVGAAGLGGLGVGGLGVPGVGGLGGIPPAAAAKAAKYGAAGLGGVLGGAGQFPLGGVAARPGFGLSPIFPGGACLGKACGRKRK"}, "B2": {"name": "tropoelastin: the soluble precursor of elastin (protein, UniProt P15502 27-786, looked up)", "Elastin": "B1 Elastin"}}, "key": {"MMP-1 mRNA": {"test_system": "MMP-1 mRNA", "details": "after 24 h of culture; standardized with 36B4 cDNA probe"}, "pro-MMP-1": {"test_system": "pro-MMP-1", "details": "for concentration sufficient to stimulate pro-MMP-1 production: fibroblast culture, comparable stimulation levels"}, "Human lymphocytes": {"test_system": "Human lymphocytes", "details": "1 microgram/ml"}, "[1]": {"test_system": "elastin-laminin receptor (ELR)", "details": "5 micrograms/ml (140 micromolar), 10th and 15th passage"}, "[2]": {"details": "1 mM lactose in fibroblast culture medium"}}}
{"molecule": "VGVAPG", "values": [{"measurement": "expression of proteins reacting with anti-MMP-3 antibody (pro-MMP-3)", "setting": "pro-MMP-3; Western blotting, stimulated fibroblasts", "value": "significantly up-regulated"}, {"measurement": "MMP-1 mRNA levels increased", "setting": "MMP-1 mRNA", "value": 8, "unit": "fold"}, {"measurement": "pro-MMP-1 induction level", "setting": "pro-MMP-1", "value": 1, "unit": "ng/h/10^5 fibroblasts"}, {"measurement": "concentration sufficient to stimulate pro-MMP-1 production", "setting": "pro-MMP-1", "value": 200, "unit": "µg/mL"}]}
{"molecule": "GVAPGV", "values": [{"measurement": "efficiency of pro-MMP-1 induction relative to VGVAPG (more efficient)", "setting": "pro-MMP-1; compared with VGVAPG", "value": 20, "unit": "%"}]}
{"molecule": "LGTIPG", "values": [{"measurement": "stimulation of MMP-1 expression", "setting": "pro-MMP-1; laminin-derived peptide", "value": "Stimulation of MMP-1 expression could also be achieved"}]}
{"molecule": "OC[C@H]1O[C@H](OCC2O[C@@H](O)[C@H](O)[C@@H](O)[C@@H]2O)[C@H](O)[C@@H](O)[C@H]1O", "note": "(stereo partly shown) [melibiose]", "values": [{"measurement": "elastin peptide-induced cell death", "setting": "Human lymphocytes", "value": "inhibited"}, {"measurement": "incorporation of the tracer in GAGs", "setting": "human skin fibroblasts", "value": "increased"}, {"measurement": "post-synthetic degradation of hyaluronan", "setting": "human skin fibroblasts", "value": "inhibited"}, {"measurement": "fibronectin biosynthesis", "setting": "[1]", "value": "decreased"}, {"measurement": "total protein biosynthesis", "setting": "[1]", "value": "decreased"}]}
{"molecule": "interleukin-1 receptor antagonist: interleukin-1 receptor antagonist", "values": [{"measurement": "blocking of elastin peptide-dependent induction of pro-MMP-1", "setting": "pro-MMP-1", "value": "could not be blocked"}]}
{"molecule": "OC[C@H]1O[C@@H](O[C@H]2[C@H](O)[C@@H](O)C(O)O[C@@H]2CO)[C@H](O)[C@@H](O)[C@H]1O", "note": "(stereo partly shown) [lactose]", "values": [{"measurement": "elastin peptide-induced cell death", "setting": "Human lymphocytes", "value": "inhibited"}, {"measurement": "accumulation of pro-MMP-3 in the medium", "setting": "pro-MMP-3; cells treated with 1 mM lactose", "value": "decreased"}, {"measurement": "inhibition of VGVAPG-stimulating effect on pro-MMP-1 production", "setting": "pro-MMP-1; [2]", "value": 80, "unit": "%"}, {"measurement": "inhibition of kE-stimulated pro-MMP-1 production", "setting": "pro-MMP-1; [2]", "value": 35, "unit": "%"}, {"measurement": "effect on pro-MMP-1 accumulation stimulated by interleukin-1", "setting": "pro-MMP-1; lactose alone", "value": "no effect"}]}
{"molecule": "B1", "values": [{"measurement": "concentration sufficient to stimulate pro-MMP-1 production", "setting": "pro-MMP-1", "value": 50, "unit": "µg/mL"}]}
{"molecule": "B2", "values": [{"measurement": "concentration sufficient to stimulate pro-MMP-1 production", "setting": "pro-MMP-1", "value": 50, "unit": "µg/mL"}]}
